The values below come from patent publication US6780431B1, “Substituted benzylthiazolidine-2,4-dione derivatives” (Kyorin Pharmaceutical Co., Ltd., priority 1999, dated 2004).

The target in data set [1] is T1, human PPARγ ligand-binding domain fused with yeast transcription factor DNA-binding domain (Homo sapiens, UniProt P37231).
T1 sequence (P37231 238-503 limits assumed): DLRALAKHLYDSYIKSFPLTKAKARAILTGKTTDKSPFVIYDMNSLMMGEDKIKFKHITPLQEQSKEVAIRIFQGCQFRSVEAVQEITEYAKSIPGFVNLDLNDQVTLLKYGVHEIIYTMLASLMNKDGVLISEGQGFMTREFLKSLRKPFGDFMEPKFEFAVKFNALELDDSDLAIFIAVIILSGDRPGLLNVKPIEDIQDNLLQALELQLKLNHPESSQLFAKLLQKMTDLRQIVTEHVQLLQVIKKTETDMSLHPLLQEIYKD
The experiment in a line: Test of transactivation on PPARγ (CHO cells, reporter plasmid, CAT activity).
Description: (§1) Test of Transactivation on Peroxisome Proliferator-activated Receptors α and β
(§2) After 24 hours, CAT activity and β-galactosidase activity were measured.

The target in data set [2] is T2, human type PPARα ligand-binding domain fused with yeast transcription factor DNA-binding domain (Homo sapiens, UniProt Q07869).
T2 sequence (Q07869 239-466 limits assumed): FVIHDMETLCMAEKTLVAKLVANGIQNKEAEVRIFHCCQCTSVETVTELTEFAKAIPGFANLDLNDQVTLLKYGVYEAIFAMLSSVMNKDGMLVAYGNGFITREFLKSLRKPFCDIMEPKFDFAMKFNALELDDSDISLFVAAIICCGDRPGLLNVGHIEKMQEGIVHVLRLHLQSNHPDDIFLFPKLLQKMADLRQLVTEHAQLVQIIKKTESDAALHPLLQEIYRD
Nature of the data set: Test of transactivation on PPARα (CHO cells, reporter plasmid, CAT activity).
Description: as §1, §2

SMILES strings stand for the structures. Like-named read-outs stand apart in the source and are kept apart here.

In general, EC50 refers to the concentration giving half of the maximal effect. As for `CCCOc1ccc(CNC(=O)c2cc(CC3SC(=O)NC3=O)ccc2OC)cc1` (stereo not drawn) [Example 7], the values for the EC50 in data set [1] and in data set [2] were 1800 nM and 110 nM, respectively. As usually defined, the melting point is the temperature of the solid-liquid transition. In turn, `COc1ccc(CC2SC(=O)NC2=O)cc1C(=O)NCc1ccc(Br)cc1` (stereo not drawn) [Example 2] came in with a melting point of 198 to 200 °C. For the same compound, in data set [1], the concentration giving a half-maximal response (EC50) was determined as 290 nM. The compound also registered an EC50 in data set [2] of 490 nM. In turn, `COc1ccc(CC2SC(=O)NC2=O)cc1C(=O)NCc1ccc(OC(C)C)cc1` (stereo not drawn) (hydrate or solvate) [Example 6] returned a melting point of 79 to 81.5 °C. Turning to `COc1ccc(CC2SC(=O)NC2=O)cc1C(=O)NCc1ccc(OC(C)C)cc1` (stereo not drawn) [Example 6], the values for the EC50 in data set [1] and in data set [2] were 110 nM and 760 nM, respectively. The like results for `COc1ccc(CC2SC(=O)NC2=O)cc1C(=O)NCc1ccc(Cl)c(Cl)c1` (stereo not drawn) [Example 9] were, in that order, 1100 nM and 700 nM. Take `COc1ccc(CC2SC(=O)NC2=O)cc1C(=O)NCc1ccc(Cl)cc1` (stereo not drawn) [Example 3]: the melting point is 199 to 201 °C. This compound also returned a 50% effective concentration (EC50) in data set [1] of 400 nM. This compound showed an EC50 in data set [2] of 260 nM. Consider `COc1ccc(CC2SC(=O)NC2=O)cc1C(=O)NCc1ccc(Cl)c(Cl)c1` (stereo not drawn) (hydrate or solvate) [Example 9], for which the melting point lay in the range of 181 to 182 °C. In the case of `COc1ccc(CC2SC(=O)NC2=O)cc1C(=O)NCc1cccc(OC(F)(F)F)c1` (stereo not drawn) [Example 4], the results for the concentration giving a half-maximal response (EC50) in data set [1] and in data set [2] were 360 nM and 180 nM, respectively. In turn, `CCOc1ccc(CNC(=O)c2cc(CC3SC(=O)NC3=O)ccc2OC)cc1` (stereo not drawn) [Example 5] came in with a melting point of 130 to 132 °C. It took 300 nM to reach a half-maximal effect in data set [1] (EC50). Also, the EC50 in data set [2] was found to be 430 nM. `CCCOc1ccc(CNC(=O)c2cc(CC3SC(=O)NC3=O)ccc2OC)cc1` (stereo not drawn) (hydrate or solvate) [Example 7]: the melting point lay within 132 to 133 °C. `COc1ccc(CC2SC(=O)NC2=O)cc1C(=O)NCc1ccc([N+](=O)[O-])cc1` (stereo not drawn) [Example 1, N-[(4-Nitrophenyl)methyl]-5-[(2,4-dioxothiazolidin-5-yl)methyl]-2-methoxybenzamide] yielded a melting point of 236.5 to 238.5 °C. Also, the midpoint of the response in data set [1], the EC50, lay at 1600 nM. The same compound came in with an EC50 in data set [2] of 530 nM. With `CCCCC/C=C\C/C=C\C=C\[C@@H](O)C/C=C\CCCC(=O)O` [(8S)-HETE, reference compound], the EC50 in data set [2] (read-out: Transactivation PPARα EC50, CHO cells, 24 hours, CAT activity with β-galactosidase internal standard) was found to be 1300 nM. Take `COc1ccc(CC2SC(=O)NC2=O)cc1C(=O)NCc1ccc(Cl)cc1Cl` (stereo not drawn) [Example 8]: the 50% effective concentration (EC50) amounted to 280 nM in data set [1] and 220 nM in data set [2]. Take `COc1ccc(CC2SC(=O)NC2=O)cc1C(=O)NCc1ccc(Cl)cc1Cl` (stereo not drawn) (hydrate or solvate) [Example 8]: the melting point is 188 to 189 °C.
